Converted amounts (≈) assume the structure as drawn.
Test: solubility of acetaminophen in recrystallisation solvent (50% water and 50% methanol)
Format: physicochemical
Settings: aqueous with cosolvent or surfactant or cyclodextrin; solvent mixture of 50% water and 50% methanol by volume, heated to near boiling
Method: Heat the reaction mixture at about 115° C. with stirring for about 10 minutes to complete the reaction. Once complete, cool the mixture thoroughly in an ice bath for 15-20 minutes and collect the crystals by vacuum filtration on a Hirsch funnel. To decolorize the crude product, dissolve 0.2 g of sodium dithionite (sodium hydrosulfite) in 1.5 mL of water in a 5-mL conical vial. Add the crude acetaminophen to the vial. Heat the mixture at about 100° C. for 15 minutes, with occasional stirring. Cool the mixture to precipitate the decolorized acetaminophen. To purify the decolorized product, dissolve the material in a solvent mixture composed of 50% water and 50% methanol by volume, heated to boiling. The solubility of acetaminophen in the near-boiling solvent is about 0.2 g/mL. Cool the solution to precipitate the acetaminophen.

## CC(=O)Nc1ccc(O)cc1 [acetaminophen, N-acetyl-p-aminophenol]
  solubility: ~200 mg/mL (≈ 1320 mM)

Reference: patent US10286504B2, “Synthesis of paracetamol (acetaminophen) from biomass-derived p-hydroxybenzamide” (Wisconsin Alumni Research Foundation, priority 2017, dated 2019)
